Source: patent US6936469B2, “Methods for delivering nucleic acid molecules into cells and assessment thereof” (Chromos Molecular Systems Inc., priority 2001, dated 2005)

Tests used:
[1] = test system: V79-4 (Chinese Hamster Lung fibroblast) cells; assay: Flow cytometry measurement of delivery of IdU labeled ACes with transfection agents; format: cell-based; settings: percentage of transfected cells containing IdU labeled ACes, 1×10^6 ACes complexed with agent, agent dose in microliters per Table 2
Procedure: All compounds were tested in a Chinese Hamster lung fibroblast line (V79-4, ATCC number CCL-39). Approximately 17 hours (2 cell doublings) prior to transfection, exponentially growing cells were trypsinized and plated at 250,000 cells per well into a 6 well petri dish with Dulbecco's Modified Eagle Medium (Life Technologies, Burlington, ON) and supplemented with 10% FBS (Can Sera, Rexdale ON)). At the time of transfection, the number of cells per well was estimated to be approximately 1 million. For transfection, each individual manufacturer's protocol for complexing to naked DNA was followed, with the exception that the amount of transfection agent used was varied, to reflect the different amount and type of DNA present, as well as the different ionic strength of the complexing. […]
The percentage of transfected cells containing IdUrd-labeled ACes was determined using flow cytometry and collecting FITC fluorescence. Data were accumulated to form bivariate channel distribution showing forward scatter versus green fluorescence (IdUrd-FITC). The fluorescence level at which cells were determined to be positive was established by visual inspection of the histogram of negative control cells such that the gate for the negative cells was set such that 1% appeared in the positive region. […]

A9 cells = assay: Ultrasound mediated transfection of A9 cells with GFP chromosomes; format: cell-based, murine
Procedure: (§1) Transfection of the cells was performed as follows. The medium was removed from the cells, and the cells were washed twice with HBSS (Hanks balanced salt solution without Phenol Red (Gibco BRL, UK)) at 37° C. Then 500 μl HBSS at 37° C. was added per well, followed by 10 μl of the freshly prepared vesicle solution (prepared in Example 2) to yield a final concentration of 23.3 nmol/ml.
(§2) Alternatively, the medium was removed from the cells, and the cells were washed twice with HBSS. 500 μl HBSS/lipid solution at 37° C. was added to each well. The HBSS/lipid solution was prepared by adding 1 μl ethanolic lipid solution (prepared as described above) to 500 μl HBSS under vigorous vortexing. The plates were then sealed with parafilm tape and shaken gently at room temperature for 30 min. After incubation, ultrasound was applied at an output energy of 0.5 Watt/cm^2 for 60 sec through the bottom of the plate to the cells. The ultrasound was mediated by an ultrasound gel (Aquasonic 100, Parker, N.J.) between transducer and plate. The ultrasound was applied with an ImaRx Sonoporator 100. Immediately after applying ultrasound one GFP chromosome per seeded cell (2×10^5-5×10^5) (prepared in Example 1) was added. The plate was then sealed again and shaken gently for 1 h at room temperature. […]

Hep-G2 cells = assay: Ultrasound mediated transfection of Hep-G2 cells with GFP chromosomes; format: cell-based
Procedure: as §1, §2

CHO-KI cells = assay: Ultrasound mediated transfection of CHO-KI cells with GFP chromosomes; format: cell-based
Procedure: Vesicles were prepared at a lipid concentration of 700 nmol/ml lipid (cationic lipid/DOPE 1:1) as follows. In a glass tube (10 ml) 350 nmol cationic lipid (SAINT-2) was mixed with 350 nmol dioleoylphosphatidylethanolamine (DOPE), both solubilized in an organic solvent (Chloroform, Methanol or Chloroform/Methanol 1:1, v/v). Dioleoylphosphatidylethanolamine (DOPE; Avanti Polar Lipids, Alabaster, Ala.) forms inverse hexagonal phases in a membrane and weakens the membrane. Other effectors that may be used are cis-unsaturated phosphatidylethanolamines, cis-unsaturated fatty acids, and cholesterol.
The solvent was evaporated under a stream of nitrogen (15 min/ 250 μl solvent at room temperature). The remaining solvent was removed totally by drying the lipid for 15 min in a desiccator under high vacuum from a vacuum pump. To the dried mixture was added 1 ml ultrapure water. This was vortexed vigorously for about […]. The resulting solution was sonicated in an ultrasonication bath (Laboratory Supplies Inc. NY) until a clear solution was obtained. The resulting suspension contained a population of unilamellar vesicles with a size distribution between 50 to 100 nm.
CHO-KI cells were grown at 37°, 5% CO2, in CHO-S-SFM 2 Medium, (Gibco BRL, Paisley, UK). Between 2×10^5 and 5×10^5 cells were plated onto sterile glass slides in a 12 well plate 24 h before usage.
as §1, §2

[2] = Saint-2/DOPE 1:1, ultrasound 0.5 Watt/cm^2 for 60 sec

| Structure (SMILES) | DELIVERY % IdU positive (24 hours) [1] [%] | cells remained on the glass after transfection (A9 cells; [2]) [%] | remaining cells positive for green fluorescent protein expression (A9 cells; of the cells remaining on the glass) [%] | cells remained on the glass slide after transfection (Hep-G2 cells; [2]) [%] | remaining cells positive for green fluorescent protein expression (Hep-G2 cells; of the cells remaining on the slide) [%] | cells remained on the glass slide after transfection (CHO-KI cells; Saint-2/DOPE 1:1, ultrasound 0.5 Watt/cm^2 for 60 sec, visual inspection) [%] | GFP positive cells, of original population (CHO-KI cells; after 48 hours) [%] | remaining cells positive for green fluorescent protein expression (CHO-KI cells; after 48 hours, of the cells remaining on the slide) [%] | cells containing an intact artificial chromosome (FISH) (CHO-KI cells; after culturing for two weeks) [%] |
| --- | --- | --- | --- | --- | --- | --- | --- | --- | --- |
| CCCCCCCCCCCCCCN=C(CCNCCCCCCCCCCCCCC)NC(C)(C)C [CLONFECTIN, N-t-butyl-N′-tetradecyl-3-tetradecyl-aminopropionamidine] | 0.61 |  |  |  |  |  |  |  |  |
| CCCCCCCCC=CCCCCCCCCC(CCCCCCCCC=CCCCCCCCC)c1cc[n+](C)cc1.[Cl-] (stereo not drawn) [Saint-2, 1-methyl-4-(1-octadec-9-enyl-nonadec-10-enylenyl) pyridinium chloride] |  | 30 | 50 | 30 | 80 | 30 | 3 | 10 | 1.4 |
